According to patent US10815222B2, “Compounds for use in the treatment of kinetoplastid infection” (C.N.C.C.S. S.c.a.r.l. COLLEZIONE NAZIONALE DEI COMPOSTI …, priority 2016, dated 2020):
pEC50: −log10 of the molar value. Where two headings read alike, the source gives them in different places.

System: Bloodstream form of Trypanosoma brucei, strain Lister 427
Assay: Trypanosoma brucei growth inhibition assay (CellTiter-Glo, 24 h)
Type: cell-based
Conditions: T. Brucei Growth Inibition Assay, class symbols, read-out: T. Brucei GI EC50
How it was run: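 Bloodstream-form T. brucei Lister 427, 1500 parasites per well in supplemented IMDM with 10% FBS, were exposed to compound (DMSO ≤0.25% final) for 24 h at 37 °C. Viability was measured by CellTiter-Glo luminescence.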

| Compound | pEC50 (Trypanosoma brucei) | pEC50 |
| --- | --- | --- |
| COc1ccc2nc(C(F)(F)F)n(CC(=O)N3CC[C@@H](N(C)C)C[C@H]3c3ncc(-c4cc5ccccc5nc4OC)[nH]3)c2c1 | 6.00 to 6.29 |  |
| COc1ncc(CN2CCN(C(=O)Cc3c(C)[nH]c4ccc(F)cc34)C(c3ncc(-c4cc5ccccc5nc4OC)[nH]3)C2)cn1 (stereo not drawn) | 6.30 to 7.00 |  |
| COc1nc2ccccc2cc1-c1cnc([C@@H]2CN(Cc3cscn3)CCN2C(=O)Cn2c(C(F)(F)F)nc3ccccc32)[nH]1 [(S)-1-(2-(5-(2-methoxyquinolin-3-yl)-1H-imidazol-2-yl)-4-(thiazol-4-ylmethyl)piperazin-1-yl)-2-(2-(trifluoromethyl)-1H-benzo[d]imidazol-1-yl)ethan-1-one] | > 7.00 |  |
| CCC(=O)CCCN1CCN(C(=O)Cc2ccccc2)C(c2ncc(-c3ccc4ccccc4c3)[nH]2)C1 (stereo not drawn) | 5.30 to 6.00 |  |
| COc1nc2ccccc2cc1-c1cnc(C2CCN(Cc3ccn(C)n3)CCN2C(=O)Cc2c(C)[nH]c3ccc(F)cc23)[nH]1 (stereo not drawn) [2-(5-fluoro-2-methyl-1H-indol-3-yl)-1-(7-(5-(2-methoxyquinolin-3-yl)-1H-imidazol-2-yl)-4-((1-methyl-1H-pyrazol-3-yl)methyl)-1,4-diazepan-1-yl)ethan-1-one] | > 7.00 |  |
| COc1nc2ccccc2cc1-c1cnc([C@@H]2CN(Cc3ccccc3F)CCN2C(=O)Cn2c(C(F)(F)F)nc3ccccc32)[nH]1 | 6.30 to 7.00 |  |
| COc1ccc2nc(C(F)(F)F)n(CC(=O)N3CC[C@H](NCC4CCOC4)C[C@H]3c3ncc(-c4cc5ccccc5nc4OC)[nH]3)c2c1 (stereo partly drawn) [2-(6-methoxy-2-(trifluoromethyl)-1H-benzo[d]imidazol-1-yl)-1-((2S,4S)-2-(5-(2-methoxyquinolin-3-yl)-1H-imidazol-2-yl)-4-(((tetrahydrofuran-3-yl)methyl)amino)piperidin-1-yl)ethan-1-one] | > 7.00 |  |
| COc1nc2ccccc2cc1-c1cnc([C@@H]2CN(Cc3cccnc3)CCN2C(=O)Cn2c(C(F)(F)F)nc3ccccc32)[nH]1 [(S)-1-(2-(5-(2-methoxyquinolin-3-yl)-1H-imidazol-2-yl)-4-(pyridin-3-ylmethyl)piperazin-1-yl)-2-(2-(trifluoromethyl)-1H-benzo[d]imidazol-1-yl)ethan-1-one] | > 7.00 |  |
| COc1ccc2cc(C)n(CC(=O)N3CCS(=O)(=O)CC3c3ncc(-c4cc5ccccc5nc4OC)[nH]3)c2c1 (stereo not drawn) | 6.00 to 6.29 |  |
| COc1ccc2nc(C(F)(F)F)n(CC(=O)N3CC[C@H](NCc4nccs4)C[C@H]3c3ncc(-c4cc5ccccc5nc4OC)[nH]3)c2c1 [2-(6-methoxy-2-(trifluoromethyl)-1H-benzo[d]imidazol-1-yl)-1-((2S,4S)-2-(5-(2-methoxyquinolin-3-yl)-1H-imidazol-2-yl)-4-((thiazol-2-ylmethyl)amino)piperidin-1-yl)ethan-1-one] | > 7.00 |  |
| COc1ccc2nc(C(F)(F)F)n(CC(=O)N3CCN(CCn4cccn4)CCC3c3ncc(-c4cc5ccccc5nc4OC)[nH]3)c2c1 (stereo not drawn) [1-(4-(2-(1H-pyrazol-1-yl)ethyl)-7-(5-(2-methoxyquinolin-3-yl)-1H-imidazol-2-yl)-1,4-diazepan-1-yl)-2-(6-methoxy-2-(trifluoromethyl)-1H-benzo[d]imidazol-1-yl)ethan-1-one] | > 7.00 |  |
| COc1nc2ccccc2cc1-c1cnc([C@@H]2CCN(Cc3ccn(C)n3)CCN2C(=O)[C@@](OC)(c2ccccc2)C(F)(F)F)[nH]1 | 5.30 to 6.00 |  |
| COc1nc2ccccc2cc1-c1cnc(C2CN(CC3CCOC3)CCN2C(=O)CCc2n[nH]c3c2CCCC3)[nH]1 (stereo not drawn) |  | 5.30 to 6.00 |
| COc1ccc2[nH]c(C)c(CC(=O)N3CCN(Cc4ccn(C)n4)CCC3c3ncc(-c4cc5ccccc5nc4OC)[nH]3)c2c1 (stereo not drawn) [2-(5-methoxy-2-methyl-1H-indol-3-yl)-1-(7-(5-(2-methoxyquinolin-3-yl)-1H-imidazol-2-yl)-4-((1-methyl-1H-pyrazol-3-yl)methyl)-1,4-diazepan-1-yl)ethan-1-one] | > 7.00 |  |
| COc1nc2ccccc2cc1-c1cnc(C2CN(CC(F)F)CCN2C(=O)Cc2ccccc2)[nH]1 (stereo not drawn) | 5.30 to 6.00 |  |
| COc1ccc2nc(C(F)(F)F)n(CC(=O)N3CCN(CC4CCOC4)C[C@H]3c3ncc(-c4cc5ccccc5nc4OC)[nH]3)c2c1 (stereo partly drawn) [2-(6-methoxy-2-(trifluoromethyl)-1H-benzo[d]imidazol-1-yl)-1-((2S)-2-(5-(2-methoxyquinolin-3-yl)-1H-imidazol-2-yl)-4-((tetrahydrofuran-3-yl)methyl)piperazin-1-yl)ethan-1-one] | > 7.00 |  |
| COc1ccc2[nH]c(C)c(CC(=O)N3CCN(CCCC(=O)O)CC3c3ncc(-c4ccc5ccccc5c4)[nH]3)c2c1 (stereo not drawn) | 5.30 to 6.00 |  |
| COc1ccc2nc(C(F)(F)F)n(CC(=O)N3CCN(Cc4cnccn4)C[C@H]3c3ncc(-c4cc5ccccc5nc4OC)[nH]3)c2c1 [(S)-2-(6-methoxy-2-(trifluoromethyl)-1H-benzo[d]imidazol-1-yl)-1-(2-(5-(2-methoxyquinolin-3-yl)-1H-imidazol-2-yl)-4-(pyrazin-2-ylmethyl)piperazin-1-yl)ethan-1-one] | > 7.00 |  |
| COc1nc2ccccc2cc1-c1cnc(C2CN(CC3CCOC3)CCN2C(=O)CS(=O)(=O)c2ccccc2)[nH]1 (stereo not drawn) | 5.30 to 6.00 |  |
| COc1nc2ccccc2cc1-c1cnc(C2CN(CC(C)C)CCN2C(=O)Cc2c(C)[nH]c3ccc(F)cc23)[nH]1 (stereo not drawn) | 6.30 to 7.00 |  |
| COc1nc2ccccc2cc1-c1cnc(C2CN(CC3CCOC3)CCN2C(=O)Cc2ccc(-c3nccnc3C)cc2)[nH]1 (stereo not drawn) | 5.30 to 6.00 |  |
| COc1nc2ccccc2cc1-c1cnc([C@@H]2CN(CC3CCOC3)CCN2C(=O)Cn2c(C(N)=O)nc3ccccc32)[nH]1 (stereo partly drawn) | 6.00 to 6.29 |  |
| Cc1csc(CC(=O)N2CCN(CCc3ccccc3)CC2c2ncc(-c3ccc4ccccc4c3)[nH]2)n1 (stereo not drawn) | 5.30 to 6.00 |  |
| COc1ccc2[nH]c(C)c(CC(=O)N3CCCN(C)CC3c3ncc(-c4ccc5ccccc5c4)[nH]3)c2c1 (stereo not drawn) [2-(5-methoxy-2-methyl-1H-indol-3-yl)-1-(4-methyl-2-(5-(naphthalen-2-yl)-1H-imidazol-2-yl)-1,4-diazepan-1-yl)ethan-1-one] | 5.30 to 6.00 |  |
| CCCCCCN1CCN(C(=O)Cc2cn(C)c3ccccc23)C(c2ncc(-c3ccc4ccccc4c3)[nH]2)C1 (stereo not drawn) | 5.30 to 6.00 |  |
| COc1ccc2nc(C(F)(F)F)n(CC(=O)N3CCN(CCc4cnoc4)C[C@H]3c3ncc(-c4cc5ccccc5nc4OC)[nH]3)c2c1 [(S)-1-(4-(2-(isoxazol-4-yl)ethyl)-2-(5-(2-methoxyquinolin-3-yl)-1H-imidazol-2-yl)piperazin-1-yl)-2-(6-methoxy-2-(trifluoromethyl)-1H-benzo[d]imidazol-1-yl)ethan-1-one] | > 7.00 |  |
| COc1nc2ccccc2cc1-c1cnc([C@@H]2CN(Cc3ccccc3)CCN2C(=O)Cn2c(C(F)(F)F)nc3ccccc32)[nH]1 [(S)-1-(4-benzyl-2-(5-(2-methoxyquinolin-3-yl)-1H-imidazol-2-yl)piperazin-1-yl)-2-(2-(trifluoromethyl)-1H-benzo[d]imidazol-1-yl)ethan-1-one] | > 7.00 |  |
| O=C(Cc1c[nH]c2ncccc12)N1CCOCC1c1ncc(-c2ccc3ccccc3c2)[nH]1 (stereo not drawn) | 5.30 to 6.00 |  |
| COc1nc2ccccc2cc1-c1cnc(C2CN(CC3CCOC3)CCN2C(=O)CN2C(=O)c3ccccc3C2=O)[nH]1 (stereo not drawn) | 6.00 to 6.29 |  |
| COc1ccc2nc(C)n(CC(=O)N3CCN(CC4CCOC4)C[C@H]3c3ncc(-c4ccc(-c5ccccc5)nc4OC)[nH]3)c2c1 (stereo partly drawn) | 6.00 to 6.29 |  |
